Key:
[1] = molecular target: T1, human TRPV1 receptor (hTRPV1) (Homo sapiens, UniProt Q8NER1); assay: Capsaicin activation assay (Ca2+ influx, FLIPR); format: cell-based; settings: 0.05 μM capsaicin, 1321N1 cells expressing hTRPV1
T1 construct: expressed in transfected cells
Experimental: Dulbecco's modified Eagle medium (D-MEM) (with 4.5 mg/mL glucose) and fetal bovine serum were obtained from Hyclone Laboratories, Inc. (Logan, Utah). Dulbecco's phosphate-buffered saline (D-PBS) (with 1 mg/mL glucose and 3.6 mg/l Na pyruvate, without phenol red), L-glutamine, hygromycin B, and Lipofectamine® were obtained from Life Technologies (Grand Island, N.Y.). G418 sulfate was obtained from Calbiochem-Novabiochem Corp. (San Diego, Calif.). Capsaicin (8-methyl-N-vanillyl-6-nonenamide) was obtained from Sigma-Aldrich, Co. (St. Louis, Mo.). Fluo-4 AM (N-[4-[6-[(acetyloxy)methoxy]-2,7-difluoro-3-oxo-3H-xanthen-9-yl]-2-[2-[2-[bis[2-[(acetyloxy)methoxy]-2-oxyethyl]amino]-5-methyl-phenoxy]ethoxy]phenyl]-N-[2-[(acetyloxy)methoxy]-2-oxyethyl]-glycine, (acetyloxy)methyl ester) was purchased from Molecular Probes (Eugene, Oreg.).
The cDNAs for the human TRPV1 receptor (hTRPV1) were isolated by reverse transcriptase-polymerase chain reaction (RT-PCR) from human small intestine poly A+RNA supplied by Clontech (Palo Alto, Calif.) using primers designed surrounding the initiation and termination codons identical to the published sequences (Hayes et al. Pain 2000, 88, 205-215). The resulting cDNA PCR products were subcloned into pCIneo mammalian expression vector (Promega) and fully sequenced using fluorescent dye-terminator reagents (Prism, Perkin-Elmer Applied Biosystems Division) and a Perkin-Elmer Applied Biosystems Model 373 DNA sequencer or Model 310 genetic analyzer. Expression plasmids encoding the hTRPV1 cDNA were transfected individually into 1321N1 human astrocytoma cells using Lipofectamine®. Forty-eight hours after transfection, the neomycin-resistant cells were selected with growth medium containing 800 μg/mL Geneticin (Gibco BRL). Surviving individual colonies were isolated and screened for TRPV1 receptor activity. Cells expressing recombinant homomeric TRPV1 receptors were maintained at 37° C. in D-MEM containing 4 mM L-glutamine, 300 μg/mL G418 (Cal-biochem) and 10% fetal bovine serum under a humidified 5% CO2 atmosphere.
The functional activity of compounds at the TRPV1 receptor was determined with a Ca^2+ influx assay and measurement of intracellular Ca^2+ levels ([Ca^2+]i). All compounds were tested over an 11-point half-log concentration range. Compound solutions were prepared in D-PBS (4× final concentration), and diluted serially across 96-well v-bottom tissue culture plates using a Biomek 2000 robotic automation workstation (Beckman-Coulter, Inc., Fullerton, Calif.). A 0.2 μM solution of the TRPV1 agonist capsaicin was also prepared in D-PBS. The fluorescent Ca^2+ chelating dye Fluo-4 AM was used as an indicator of the relative levels of [Ca^2+]i in a 96-well format using a Fluorescence Imaging Plate Reader (FLIPR) (Molecular Devices, Sunnyvale, Calif.). Cells were grown to confluency in 96-well black-walled tissue culture plates. Then, prior to the assay, the cells were loaded with 100 μL per well of Fluo-4 AM (2 μM, in D-PBS) for 1-2 hours at 23° C. Washing of the cells was performed to remove extracellular Fluo-4 AM (2×1 mL D-PBS per well), and afterward, the cells were placed in the reading chamber of the FLIPR instrument. 50 μL of the compound solutions were added to the cells at the 10 second time mark of the experimental run. Then, after a 3-minute time delay, 50 μL of the capsaicin solution was added at the, 190 second time mark (0.05 μM final concentration)(final volume=200 μL) to challenge the TRPV1 receptor. Time length of the experimental run was 240 seconds. Fluorescence readings were made at 1 to 5 second intervals over the course of the experimental run. The peak increase in relative fluorescence units (minus baseline) was calculated from the 190 second time mark to the end of the experimental run, and expressed as a percentage of the 0.05 μM capsaicin (control) response. […]

[2] = Rat telemetry protocol (core body temperature); format: in vivo; settings: core body temperature of rats at one hour post dosing (100 μmol/kg, p.o.), relative to vehicle
Experimental: Male, Sprague Dawley rats, 225-250 grams were anesthetized with Sevoflurane (Abbott Laboratories). Rats were placed on a heating pad and covered with a sterile surgical drape. A ventral midline abdominal incision was made and sterile cotton tip applicators were used to gently move internal tissue and expose the abdominal aorta for implantation of the telemetry catheter (Data Sciences International; TL11M2-050-PXT). Blood flow was temporarily stopped to the lower extremities (5-7 min) with Diffenbach clamps to allow the insertion of the telemetry catheter into the abdominal aorta. Once inserted, a sterile cellulose patch was placed over the catheter/aorta and secured using a small amount of tissue adhesive (Vetbond, 3M). Once catheter placement was complete, the clamps were removed and blood flow was restored to the lower extremities. The transmitter was placed in the intraperitoneal cavity. The transmitter suture rib was sewn into the abdominal sutures to secure it in place. The skin was closed using sterile wound clips and the animal removed from Sevoflurane. Buprenex ([…] s.c.; Phoenix) was administered for post-operative analgesia. Animals were maintained on a heating pad until ambulatory, and then individually housed with food and water ad lib. Surgical staples were removed after 7-10 days post-implantation. Rats were allowed a 2-week post-surgical recovery period before treatment with test compound. Oral dosing (p.o.) was at time zero, with rats receiving a single dose of vehicle (10% EtOH, 20% Tween-80, 70% PEG-400) or a 100 μmol/kg dose of compound dissolved in vehicle. Temperature measurements were recorded every 15 minutes for the duration of the study (24 hours).
The term “core body temperature” as used herein, means the temperature measured in the intraperitoneal cavity.

T1 sequence (Q8NER1 whole entry): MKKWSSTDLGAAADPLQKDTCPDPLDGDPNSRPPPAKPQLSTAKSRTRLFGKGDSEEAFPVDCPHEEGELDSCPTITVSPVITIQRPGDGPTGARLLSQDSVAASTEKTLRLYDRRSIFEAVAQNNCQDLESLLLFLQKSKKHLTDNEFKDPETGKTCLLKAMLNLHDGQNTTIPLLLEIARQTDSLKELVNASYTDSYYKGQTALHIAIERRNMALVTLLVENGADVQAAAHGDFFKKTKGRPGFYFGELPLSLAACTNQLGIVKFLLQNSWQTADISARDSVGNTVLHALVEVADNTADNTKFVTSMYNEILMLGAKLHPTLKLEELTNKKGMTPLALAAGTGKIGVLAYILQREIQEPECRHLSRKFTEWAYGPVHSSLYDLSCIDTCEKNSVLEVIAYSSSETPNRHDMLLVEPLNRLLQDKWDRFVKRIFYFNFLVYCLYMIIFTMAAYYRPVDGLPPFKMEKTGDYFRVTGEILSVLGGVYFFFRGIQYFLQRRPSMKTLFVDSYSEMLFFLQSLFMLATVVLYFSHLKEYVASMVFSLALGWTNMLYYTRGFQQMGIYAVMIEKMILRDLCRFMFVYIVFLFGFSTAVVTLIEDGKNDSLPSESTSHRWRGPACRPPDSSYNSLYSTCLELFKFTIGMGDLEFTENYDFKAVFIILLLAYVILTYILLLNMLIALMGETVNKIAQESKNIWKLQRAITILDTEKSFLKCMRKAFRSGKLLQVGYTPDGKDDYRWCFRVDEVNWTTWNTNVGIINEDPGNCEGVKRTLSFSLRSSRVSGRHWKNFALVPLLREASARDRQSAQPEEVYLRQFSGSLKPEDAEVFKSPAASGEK

Molecule	IC50 [1]	Δ Temp [2]
Cn1ncc2c(NC(=O)N[C@@H]3CC(C)(C)Oc4ccc(F)cc43)cccc21 [Example 1, N-[(4R)-6-fluoro-2,2-dimethyl-3,4-dihydro-2H-chromen-4-yl]-N′-(1-methyl-1H-indazol-4-yl)urea]	229 nM	0.5 °C
O=C(Nc1cccc2c1C[C@@H](O)CC2)N[C@@H]1CC2(CCC2)Oc2ccc(F)cc21 [Example 9, N-[(4R)-6-fluoro-3,3′,4,4′-tetrahydro-2′H-spiro[chromene-2,1′-cyclobutan]-4-yl]-N′-[(7S)-7-hydroxy-5,6,7,8-tetrahydronaphthalen-1-yl]urea]	28 nM	0.9 °C
Cn1ncc2c(NC(=O)N[C@@H]3CC(C)(C)Oc4cc(F)ccc43)cccc21 [Example 24, N-[(4R)-7-fluoro-2,2-dimethyl-3,4-dihydro-2H-chromen-4-yl]-N′-(1-methyl-1H-indazol-4-yl)urea]	52 nM	1.3 °C
CC1(C)C[C@@H](NC(=O)Nc2cccc3[nH]ncc23)c2ccc(F)cc2O1 [Example 29, N-[(4R)-7-fluoro-2,2-dimethyl-3,4-dihydro-2H-chromen-4-yl]-N′-1H-indazol-4-ylurea]	13 nM	1.2 °C
Cn1ncc2c(NC(=O)N[C@@H]3CC(C)(C)Oc4cc(C(F)(F)F)ccc43)cccc21 [Example 33, N-[(4R)-2,2-dimethyl-7-(trifluoromethyl)-3,4-dihydro-2H-chromen-4-yl]-N′-(1-methyl-1H-indazol-4-yl)urea]	14 nM	1.4 °C
CC1(C)C[C@@H](NC(=O)Nc2cccc3c2C[C@H](O)CC3)c2ccccc2O1 [Example 36, N-[(4R)-2,2-dimethyl-3,4-dihydro-2H-chromen-4-yl]-N′-[(7R)-7-hydroxy-5,6,7,8-tetrahydronaphthalen-1-yl]urea]	33 nM	0.7 °C
N-[(2R,4R)-2-(fluoromethyl)-2-methyl-7-(trifluoromethyl)-3,4-dihydro-2H-chromen-4-yl]-N-(3-methylisoquinolin-5-yl)urea [Example 127]	25 nM	–
N-[(4R)-2,2-diethyl-8-fluoro-3,4-dihydro-2H-chromen-4-yl]-N-isoquinolin-8-ylurea [Example 83]	21 nM	–

Continued by falling IC50 [1], values first:

IC50 [1]	Molecule	Δ Temp [2]
32 nM	CC1(C)C[C@@H](NC(=O)Nc2cccc3c2C[C@@H](O)CC3)c2cc(F)ccc2O1 [Example 3, N-[(4R)-6-fluoro-2,2-dimethyl-3,4-dihydro-2H-chromen-4-yl]-N′-[(7S)-7-hydroxy-5,6,7,8-tetrahydronaphthalen-1-yl]urea]	0.6 °C
30 nM	CC1(C)C[C@@H](NC(=O)Nc2cccc3c2C[C@H](O)CC3)c2cc(F)ccc2O1 [Example 4, N-[(4R)-6-fluoro-2,2-dimethyl-3,4-dihydro-2H-chromen-4-yl]-N′-[(7R)-7-hydroxy-5,6,7,8-tetrahydronaphthalen-1-yl]urea]	0.6 °C
29 nM	CC1(C)C[C@@H](NC(=O)Nc2cccc3c2C[C@H](O)CC3)c2cc(F)cc(F)c2O1 [Example 18, N-[(4R)-6,8-difluoro-2,2-dimethyl-3,4-dihydro-2H-chromen-4-yl]-N′-[(7R)-7-hydroxy-5,6,7,8-tetrahydronaphthalen-1-yl]urea]	1.4 °C
25 nM	Cn1ncc2c(NC(=O)N[C@@H]3CC(C)(C)Oc4cc(OC(F)(F)F)ccc43)cccc21 [Example 39, N-[(4R)-2,2-dimethyl-7-(trifluoromethoxy)-3,4-dihydro-2H-chromen-4-yl]-N′-(1-methyl-1H-indazol-4-yl)urea]	0.7 °C
5 nM	CC1(C)C[C@@H](NC(=O)Nc2cccc3cnccc23)c2ccc(OC(F)(F)F)cc2O1 [Example 40, N-[(4R)-2,2-dimethyl-7-(trifluoromethoxy)-3,4-dihydro-2H-chromen-4-yl]-N′-isoquinolin-5-ylurea]	0.8 °C
